One experiment deals with A431 cell line. As to the kind of experiment: Cellular anti-proliferative assay of VPS34 inhibitors in combination with a second therapeutic agent (Cell Titer Glo, 72 hrs). Format: cell-based. The method, then:
(§1) Example 57: Cellular Assay for Anti-proliferative Activity of VPS34 Inhibitors in Combination with a Second Therapeutic Agent
(§2) Cells were plated in 25 μl of media in 384 well plates at 1,000 cells per well (A431, PC9, and […] cell lines), 1,500 cells per well (NCI-H1975) or 2,000 cells per well (NCI-H1650). The plates were incubated for 24 hrs at 37° C., 6% CO2. The test compounds (see Table 38 below) were diluted serially, and 62.5 nL of each compound solution (or DMSO, if it is a single agent experiment) is added so the total added to the cells is 125 nL. Cell plates were incubated for 72 hrs at 37° C., 6% CO2. Cell Titer Glo reagent (Promega) was added. The plates were then incubated for 10 minutes at room temperature before luminescence was read on a plate reader such as the Pherastar Plus, Pherastar FS, or LEADSeeker imaging system.
(§3) Bliss antagonism was defined similarly.
(§4) Bliss dependence was defined as the percent cell survival at a certain dose combination divided by the percent cell survival predicted by Bliss independence. More specifically, the Bliss dependence is vAB/(vA*vB), where vAB is the viability with drug A and drug B added, while vA and vB are the viabilities with each drug alone. The dose for the combination used in this study is the inflection point for each drug alone.
(§5) Another way to evaluate additivity is through consideration of Loewe additivity. A difference between Bliss independence and Loewe additivity evaluations of drug combination data is that Bliss independence evaluates whether two drugs interact at all (the null hypothesis is that the mechanisms are entirely independent) and Loewe additivity evaluates whether two drugs interact in an additive fashion (the null hypothesis is that the two drugs work by identical mechanisms). For Bliss independence, the boundary between additivity and synergy must be measured. For Loewe additivity, this boundary is assumed to be at a value of 1. Thus, Bliss independence provides a boundary between antagonism and synergy or additivity. Loewe additivity provides a boundary between synergy and independence or antagonism.
(§6) Synergy can also be measured by nonlinear blending synergy. Nonlinear blending synergy [Peterson, J. J. and Novik, S. J. J Recept Signal Transduct Res, 27, 12-146 (2007))] is found by considering the percent cell death values along the nonlinear blending plot. If the maximum cell death occurs between the endpoints, then the blending synergy is the difference between the maximum cell death for the combined drugs and the maximum cell death for the either drug alone.
(§7) A derivative of Loewe additivity is the Combination Index, I (see Chou T. C., Talalay P. Adv. Enzyme Reg., 22: 27-55 (1984) and Berenbaum M. C. J. Theor. Biol., 114:413-431 (1985)). This measure is based on the shape of the isobologram which represents 50% viability (for a review of the use of isobolograms in analysis of drug combinations, see Tallarida, R. J. J. Pharm. Exp. Therap. 319:1-7 (2006)).
(§8) The results in Table 38A were summarized by categorizing the Combination Index, I. A mean Combination Index in the range (0.7-1.3) is classified as Additivity. A mean in the range (0-0.7) is classified as Synergy. A mean in the range (1.3-2) is classified as Subadditivity. A mean greater than 2 is classified as Antagonism. […] In this case, the Nonlinear Blending Synergy is used instead to generate a call (Table 38B). The categorization is similar to the Combination Index. A Nonlinear Blending Synergy within the range (−20, 20) is classified as Additive. A value below −20 is classified as Antagonism, while a value above 20 is classified as Synergy.
(In general: In ATP-based viability assays light output follows the ATP content of the culture.)

Another experiment has as its target human VPS34 (Homo sapiens (Human), UniProt Q8NEB9). As to the kind of experiment: Human VPS34 enzyme assay (Adapta TR-FRET ADP detection). Type of experiment: biochemical. The conditions noted are these: IC50 range class. (Time-resolved FRET reads energy transfer from a long-lived donor to a nearby acceptor.)
In another experiment the test system is NCI-H1650 cell line. As to the kind of experiment: Cellular anti-proliferative assay of VPS34 inhibitors in combination with a second therapeutic agent (Cell Titer Glo, 72 hrs). Format: cell-based, human. Particulars: NCI H-1650; for Blending Synergy: in combination with Erlotinib (Compound Y). The method, then: as §1, §2, §3, §4, §5, §6, §7, §8
Another experiment concerns NCI-H1975 cell line. Described as above. Format: cell-based, human. As to the method: as §1, §2, §3, §4, §5, §6, §7, §8
For another experiment, the system named is PC9 cell line. The description is as above. Type of experiment: cell-based, human. As to the method: as §1, §2, §3, §4, §5, §6, §7, §8
[1] abbreviates: in combination with AZD9291 (Compound Y).
The mark [2] stands for this setting: in combination with AZD9291, call from Combination Index.
Where [3] appears, read: in combination with Afatinib (Compound Y).
Where [4] appears, read: in combination with Afatinib, call from Combination Index.
Setting [5] is: in combination with CO-1686 (Compound Y).
The mark [6] stands for this setting: in combination with CO-1686, call from Combination Index.
Where [7] appears, read: in combination with Erlotinib (Compound Y).
Where [8] appears, read: in combination with Erlotinib, call from Combination Index.

Each structure is given as a SMILES string.

Sequence of human VPS34 (Q8NEB9 whole entry): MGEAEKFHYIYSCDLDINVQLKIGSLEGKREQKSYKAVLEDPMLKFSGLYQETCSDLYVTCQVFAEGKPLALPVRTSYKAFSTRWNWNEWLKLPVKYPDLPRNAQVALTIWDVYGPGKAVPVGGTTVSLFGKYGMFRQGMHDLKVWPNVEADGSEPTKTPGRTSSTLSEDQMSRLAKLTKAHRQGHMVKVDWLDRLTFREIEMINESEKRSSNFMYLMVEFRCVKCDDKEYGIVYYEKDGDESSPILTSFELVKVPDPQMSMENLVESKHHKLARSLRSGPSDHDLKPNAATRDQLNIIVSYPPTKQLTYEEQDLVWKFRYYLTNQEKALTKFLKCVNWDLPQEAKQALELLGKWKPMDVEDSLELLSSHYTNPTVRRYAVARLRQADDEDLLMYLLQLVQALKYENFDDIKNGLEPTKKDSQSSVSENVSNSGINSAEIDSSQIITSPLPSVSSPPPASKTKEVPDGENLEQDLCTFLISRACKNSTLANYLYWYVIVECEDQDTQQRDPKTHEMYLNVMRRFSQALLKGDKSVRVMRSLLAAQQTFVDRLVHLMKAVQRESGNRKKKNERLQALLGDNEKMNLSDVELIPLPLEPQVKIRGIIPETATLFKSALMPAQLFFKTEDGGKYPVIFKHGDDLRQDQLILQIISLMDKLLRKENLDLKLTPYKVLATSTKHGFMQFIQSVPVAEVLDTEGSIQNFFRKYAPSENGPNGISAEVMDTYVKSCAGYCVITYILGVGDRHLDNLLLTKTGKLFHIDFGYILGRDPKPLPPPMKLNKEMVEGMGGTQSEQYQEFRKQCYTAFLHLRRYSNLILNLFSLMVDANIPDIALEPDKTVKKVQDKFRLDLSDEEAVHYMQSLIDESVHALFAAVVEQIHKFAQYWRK

Take `CC(=O)Nc1cc(-c2cnc(C)c(NS(=O)(=O)c3ccc(F)cc3F)c2)ccn1` [Compound I-41, N-(5-{[(2,4-difluorophenyl)sulfonyl]amino}-6-methyl-3,4′-bipyridin-2′-yl)acetamide]: the “Combination Index” value with A431 cell line (setting [1]) amounted to 0.62; in the experiment on A431 cell line (setting [3]), 0.24; in the experiment with A431 cell line (setting [5]) it was 0.74; with A431 cell line (setting [7]), 0.38; in the experiment on NCI-H1650 cell line (setting [1]), 0.92; with NCI-H1650 cell line (setting [3]), 0.72. The “Combination Index” value in the experiment on NCI-H1650 cell line (setting [5]) is reported as 0.58; in the experiment on NCI-H1975 cell line (setting [1]), 0.45; with NCI-H1975 cell line (setting [3]), 0.58; in the experiment with NCI-H1975 cell line (setting [5]) it was 0.51; with PC9 cell line (setting [1]), 0.92; in the experiment on PC9 cell line (setting [3]) it was 1.02. Moreover, the “Combination Index” value was 0.84 with PC9 cell line (setting [5]) and 1.02 with PC9 cell line (setting [7]). In addition, the Meaning entry in the experiment with A431 cell line (setting [2]) is listed as “Synergy (A mean in the range (0-0.7) is classified as Synergy)”; in the experiment on A431 cell line (setting [4]), “Synergy (A mean in the range (0-0.7) is classified as Synergy)”; with A431 cell line (setting [6]) it was “Additivity (A mean Combination Index in the range (0.7-1.3) is classified as Additivity)”; in the experiment on A431 cell line (setting [8]), “Synergy (A mean in the range (0-0.7) is classified as Synergy)”; in the experiment with PC9 cell line (setting [2]), “Additivity (A mean Combination Index in the range (0.7-1.3) is classified as Additivity)”; in the experiment with PC9 cell line (setting [4]), “Additivity (A mean Combination Index in the range (0.7-1.3) is classified as Additivity)”. Moreover, the Meaning result in the experiment on PC9 cell line (setting [6]) and in the experiment on PC9 cell line (setting [8]) was “Additivity (A mean Combination Index in the range (0.7-1.3) is classified as Additivity)” in each case. Also, at human VPS34, the IC50 (in general, the concentration that inhibits the measured activity by half) was < 10 nM. Besides, the “Blending Synergy” value in the experiment with NCI-H1650 cell line is given as 20.5.

For `Cc1c(-c2ccnc(NC(=O)C3CC3)c2)cnc(Cl)c1NS(=O)(=O)c1ccc(F)cc1F` [Compound I-308, N-(6-chloro-5-{[(2,4-difluorophenyl)sulfonyl]amino}-4-methyl-3,4′-bipyridin-2′-yl)cyclopropanecarboxamide], the “Blending Synergy” value in the experiment with A431 cell line (setting [1]) was 10.2; in the experiment on A431 cell line (setting [3]), 11.2; with A431 cell line (setting [7]), 15.2; with NCI-H1650 cell line, 27.0. Also, the Meaning entry with A431 cell line (in combination with AZD9291, call from Nonlinear Blending Synergy) is given as “Additivity”; in the experiment with A431 cell line (in combination with Afatinib, call from Nonlinear Blending Synergy) it was “Additivity”; in the experiment on A431 cell line (setting [6]), “Additivity (A mean Combination Index in the range (0.7-1.3) is classified as Additivity)”; in the experiment with A431 cell line (in combination with Erlotinib, call from Nonlinear Blending Synergy), “Additivity”; in the experiment on PC9 cell line (setting [2]), “Subadditivity (A mean in the range (1.3-2) is classified as Subadditivity)”; in the experiment on PC9 cell line (setting [4]), “Subadditivity (A mean in the range (1.3-2) is classified as Subadditivity)”. Besides, the figures for the Meaning entry in the experiment on PC9 cell line (setting [6]) and with PC9 cell line (setting [8]) were “Additivity (A mean Combination Index in the range (0.7-1.3) is classified as Additivity)” and “Subadditivity (A mean in the range (1.3-2) is classified as Subadditivity)”, respectively. The “Combination Index” value amounted to 0.88 with A431 cell line (setting [5]); 0.53 with NCI-H1650 cell line (setting [1]); 0.55 with NCI-H1650 cell line (setting [3]); 0.36 in the experiment with NCI-H1650 cell line (setting [5]); 0.72 in the experiment on NCI-H1975 cell line (setting [1]); 0.84 in the experiment on NCI-H1975 cell line (setting [3]). The “Combination Index” value is 0.60 in the experiment with NCI-H1975 cell line (setting [5]); 1.33 with PC9 cell line (setting [1]); 1.49 in the experiment on PC9 cell line (setting [3]); 1.19 in the experiment with PC9 cell line (setting [5]); 1.36 in the experiment with PC9 cell line (setting [7]). The IC50 at human VPS34 is < 10 nM.

`Cc1ncc(-c2ccnc(Nc3ccncn3)c2)cc1NS(=O)(=O)N(C)C` [Compound I-217, N,N-dimethyl-N′-[6-methyl-2′-(pyrimidin-4-ylamino)-3,4′-bipyridin-5-yl]sulfuric diamide]: the “Combination Index” value with A431 cell line (setting [3]) is on record as 0.36; in the experiment on A431 cell line (setting [7]), 0.46; with NCI-H1650 cell line (setting [3]) it was 0.31; in the experiment on NCI-H1975 cell line (setting [3]) it was 0.52; with PC9 cell line (setting [3]), 0.97; in the experiment on PC9 cell line (setting [7]), 0.87. Moreover, the Meaning result is recorded as “Synergy (A mean in the range (0-0.7) is classified as Synergy)” with A431 cell line (setting [4]), “Synergy (A mean in the range (0-0.7) is classified as Synergy)” in the experiment on A431 cell line (setting [8]), “Additivity (A mean Combination Index in the range (0.7-1.3) is classified as Additivity)” with PC9 cell line (setting [4]) and “Additivity (A mean Combination Index in the range (0.7-1.3) is classified as Additivity)” in the experiment with PC9 cell line (setting [8]). At human VPS34, the IC50 was < 10 nM. Also, the “Blending Synergy” value with NCI-H1650 cell line was 28.65.

Source of the values: patent US9751854B2 (Millennium Pharmaceuticals, Inc., priority 2014, dated 2017).
